Results from patent US20230277553A1, “THERAPEUTIC COMPOSITION OF CURE-PRO COMPOUNDS FOR TARGETED DEGRADATION OF BET DOMAIN PROTEINS, AND METHODS OF MAKING AND USAGE” (CORNELL UNIVERSITY, priority 2020, published 2023).
“Also recorded” adds a separate entry of the source.

How the values were obtained:
Format in all cases: cell-based
BRD4 [1] = biological target: T1, BRD4 (Homo sapiens, UniProt O60885); experiment: CURE-PRO-mediated BRD4 degradation with MDM2 ligands, Western blot, HCT116 cells; design: endogenous in cells; conditions: for BRD4 degradation, in combination with MDM2 ligands 8310 and 8312 (Western blot): HCT116, 24 h, 1:1, 10 μM; for Selectivity of degradation within the BRD protein family, with MDM2 ligands: HCT116, Western blot, with 8310 / 8312
Text: Anti-BRD4 (13440, 1:1,000 dilution for Western Blot and 1:25 dilution for ProteinSimple); Anti-BRD2 (5848 1:1,000 dilution for Western Blot and 1:25 dilution for ProteinSimple); β-Actin (3700, 1:2,000 dilution for Western Blot), β-Actin (4970, 1:50 dilution for ProteinSimple) anti-mouse IgG-HRP, and anti-rabbit IgG-HRP antibodies were purchased Cell Signaling Technology. Anti-GAPDH (600-401-A33, 1:100 dilution for ProteinSimple) was purchased from Rockland Immunochemicals, Inc. Anti-BRD3 (sc-81202, 1:200 dilution for Western Blot) was purchased from Santa Cruz Biotechnology.
(§1) HeLa, MCF7, or HCT116 cells (2.5-3×10^6) were treated for 24 hours with the indicated compounds solubilized in DMSO. The cells were washed in ice-cold PBS and were then lysed in RIPA lysis buffer (150 mM NaCl, 5 mM EDTA, 1% NP-40, 0.5% sodium deoxycholate, 0.1% SDS, 50 mM Tris, pH 8.0.) with Roche protease inhibitor complete cocktail and phosphatase inhibitors (10 mM sodium fluoride, 10 mM sodium pyrophosphate, 1 mM sodium orthovanadate and 20 mM β-glycerophosphate). The total protein concentrations were determined by Bradford Protein Assay and 10-20 μg of protein was loaded onto 4-15% Tris-Glycine gradient gels (Biorad). After standard gel electrophoresis, the separated proteins were transferred to PVDF membrane by wet transfer. The immunoblots were then blocked for 1 hour in 5% skim milk in TBST or 5% BSA in TBST, according to manufacturer's instructions, before an overnight incubation at 4° C. with indicated antibodies and membranes. Membranes were then incubated with the appropriate horseradish peroxidase-conjugated secondary antibodies (1:5,000 dilution) for 1 h at room temperature and the bands were visualized using the Clarity Max Western ECL Substrate (Biorad) and the ChemiDoc Imaging System (Biorad). Signal was detected with ECL Western Blotting Substrate (Pierce) and X-ray film processed with a Konica SRX-101 X-ray film processor or captured by Bio-Rad's Chemidoc Imaging system.
HCT116 cells (3×10^6) were treated for 24 hours with the compounds solubilized in DMSO. Compounds were added at 100 nM-10 μM each. Standardized protein samples were electrophoresed and imaged as described in the Immunoblotting section above. FIGS. 64 and 65 depict the concentration-dependence of CURE-PRO-mediated BRD2 and BRD3 degradation using MDM2 ligands.

MV-4-11 cells = experiment: CellTiter-Glo cell viability, MV-4-11 cells
Procedure: CellTiter-Glo® 2.0 Cell Viability Assay (Promega) was carried out following the manufacturer's recommendations. Cells were seeded at a density of 1000 cells/well in a white 96 well plates (Corning, #3917) in a total volume of 100 μl with respective monomers, combinations of BRD ligands together with E3 ligase ligands or vehicle control treatment. After a 72 h incubation, 100 ul of the CellTiter-Glo® substrate was added per well and luminescence was read on a Spectramax M5 (Molecular Devices). Dose-response curves were generated using Graphpad Prism software.
MV-4-11 cells (5×104) were treated for 24 hours with the sample compounds solubilized in DMSO. The compounds were added at 1 nM-100 μM each. Cellular viability was determined using the CellTiter-Glo® Luminescent Cell Viability Assay (Promega) described above. FIGS. 19-22 depict the CURE-PRO-mediated loss of cellular viability for BRD monomers (JQ1 derivatives comprising of catechol linkers), and CRBN ligand, 8049 (pomalidomide derivatives comprising boronic acid linkers) combined in a 1:1 ratio.
MV-4-11 cells (1×104) were treated for 72 hours with the compounds solubilized in DMSO. Compounds were added at 10 nM-100 μM each. Cellular viability was determined using the CellTiter-Glo® Luminescent Cell Viability Assay (Promega) described above. FIGS. 47-54 depict the CURE-PRO-mediated loss of cellular viability for BRD monomers (JQ1 derivatives comprising of boronic acid linkers), and CRBN ligands, 8046, 8047 and 8066 (pomalidomide derivatives comprising diol linkers) combined in a 1:1 ratio.

BRD4 [2] = biological target: T1, BRD4; experiment: CURE-PRO-mediated BRD4 degradation with VHL ligands, Western blot, MCF7 cells; design: endogenous in cells; conditions: MCF7, 24 h, 1:1 with 8305, 100 nM-10 μM
Procedure: All cell lines were purchased from ATCC or DSMZ and grown at 37° C. with 5% CO2. Human HeLa cells were cultured in complete growth medium (Dulbecco's modified Eagle's medium (DMEM) supplemented with 10% FBS); MCF7 cells were cultured in complete growth medium (Dulbecco's modified Eagle's medium (DMEM) supplemented with 10% FBS and 0.01 mg/ml human recombinant insulin (Sigma Aldrich); Namalwa and MOLM-13 cells were cultured in complete growth medium (RPMI 1640 medium supplemented with 10% FBS); MV-4-11 were cultured in complete growth medium (Iscove's Modified Dulbecco's medium, supplemented with 10% FBS); HCT116 cells were cultured in complete growth medium (McCoy's 5a Medium supplemented with 10% FBS). For cellular degradation of BRD4 studies, cells were seeded in a 12-well plate at 70-80% confluency, allowed to attach overnight, and incubated with the indicated compounds for the indicated time. When indicated, a 15-minute pretreatment with 10 μM pomalidomide, 10 μM VHL298, 10 μM Nutlin3a, 1 μM MG-132 or 1 μM Carfilzomib was performed before the addition of CURE-PROs. For washout studies, after CURE-PRO treatment, media was aspirated and incubated with complete medium for the indicated time before lysis.
as §1
MCF7 cells (3×10^6) were treated for 24 h with the compounds solubilized in DMSO. Compounds were added at 100 nM-10 μM. […]

| SMILES | BRD4 degradation, in combination with MDM2 ligands 8310 and 8312 (Western blot) (BRD4 [1]) | Selectivity of degradation within the BRD protein family, with MDM2 ligands (BRD4 [1]) | Loss of cellular viability / toxicity, co-dosed with CRBN ligand 8049 (MV-4-11 cells; MV-4-11, 24 hours, 1:1 with 8049, 1 nM-100 μM each) | BRD4 degradation, with VHL ligand 8305 (Western blot) (BRD4 [2]) | Loss of cellular viability / toxicity, cotreated with cereblon ligands 8046, 8047 and 8066 vs monomers alone (MV-4-11 cells; MV-4-11, 72 hours, 1:1, 10 nM-100 μM each) |
| --- | --- | --- | --- | --- | --- |
| CCNC(=O)C[C@@H]1N=C(c2ccc(Cl)cc2)c2cc(OCCNC(=O)c3cccc(O)c3O)ccc2-n2c(C)nnc21 [BRD-N25] | caused BRD4 degradation; also recorded: Degradation is evident | some selectivity for BRD3 and BRD4 over BRD2 for 8310 | concentration-dependent loss in cellular viability; also recorded: increased toxicity | – | – |
| CCNC(=O)C[C@@H]1N=C(c2ccc(Cl)cc2)c2cc(OCCCCC(=O)Nc3cccc(B(O)O)c3)ccc2-n2c(C)nnc21 [BRD-E20, (3-(5-(((4S)-6-(4-chlorophenyl)-4-(2-(ethylamino)-2-oxoethyl)-1-methyl-4H-benzo[f][1,2,4]triazolo[4,3-a][1,4]diazepin-8-yl)oxy)pentanamido)phenyl)boronic acid] | – | – | – | there is degradation of BRD4 | reduced viability; also recorded: increased toxicity |
| CCNC(=O)C[C@@H]1N=C(c2ccc(Cl)cc2)c2cc(OCCOCCNC(=O)c3cccc(O)c3O)ccc2-n2c(C)nnc21 [BRD-N39, N-(2-(2-(((4S)-6-(4-chlorophenyl)-4-(2-(ethylamino)-2-oxoethyl)-1-methyl-4H-benzo[f][1,2,4]triazolo[4,3-a][1,4]diazepin-8-yl)oxy)ethoxy)ethyl)-2,3-dihydroxybenzamide] | caused BRD4 degradation; also recorded: Degradation is evident | some selectivity for BRD4 over BRD2 and BRD3 | – | – | – |
